Laboratory results taken from ChEMBL document CHEMBL5335773, “Synthesis and structure-activity relationship of new nicotinamide phosphoribosyltransferase inhibitors with antitumor activity on solid and haematological cancer” (Eur J Med Chem, 2023).

Assays:
MIA PaCa-2 [1] = assay: cells; conditions: Homo sapiens, MIA PaCa-2, 72 h
MIA PaCa-2 [2] = assay: cells; conditions: Homo sapiens, MIA PaCa-2, 24 h
RPMI-8226 = assay: Cytotoxicity against human RPMI-8226 cells assessed as inhibition of cell viability at 72 hrs by SRB assay; assay type: functional, cell-based; conditions: RPMI-8226, 72 h
NAMALVA = assay: Cytotoxicity against human NAMALVA cells assessed as inhibition of cell viability at 72 hrs by SRB assay; assay type: functional, cell-based
ML-2 = assay: Cytotoxicity against human ML-2 cells assessed as inhibition of cell viability at 72 hrs by SRB assay; assay type: functional, cell-based; conditions: ML-2, 72 h
NB-4 = assay: Cytotoxicity against human NB4 cells assessed as inhibition of cell viability at 72 hrs by SRB assay; assay type: functional, cell-based; conditions: NB-4, 72 h
Jurkat = assay: Cytotoxicity against human Jurkat cells assessed as inhibition of cell viability at 72 hrs by SRB assay; assay type: functional, cell-based
[3] = target: Nicotinamide phosphoribosyltransferase (Homo sapiens, UniProt P43490); assay: Inhibition of full-length recombinant human NAMPT (2 to 491 residues) expressed in Escherichia coli using NAM as substrate preincubated for 5 mins followed by substrate addition measured after 15 mins by fluorescence based assay
Chain of Nicotinamide phosphoribosyltransferase (P43490 whole entry, the tested form may be a part): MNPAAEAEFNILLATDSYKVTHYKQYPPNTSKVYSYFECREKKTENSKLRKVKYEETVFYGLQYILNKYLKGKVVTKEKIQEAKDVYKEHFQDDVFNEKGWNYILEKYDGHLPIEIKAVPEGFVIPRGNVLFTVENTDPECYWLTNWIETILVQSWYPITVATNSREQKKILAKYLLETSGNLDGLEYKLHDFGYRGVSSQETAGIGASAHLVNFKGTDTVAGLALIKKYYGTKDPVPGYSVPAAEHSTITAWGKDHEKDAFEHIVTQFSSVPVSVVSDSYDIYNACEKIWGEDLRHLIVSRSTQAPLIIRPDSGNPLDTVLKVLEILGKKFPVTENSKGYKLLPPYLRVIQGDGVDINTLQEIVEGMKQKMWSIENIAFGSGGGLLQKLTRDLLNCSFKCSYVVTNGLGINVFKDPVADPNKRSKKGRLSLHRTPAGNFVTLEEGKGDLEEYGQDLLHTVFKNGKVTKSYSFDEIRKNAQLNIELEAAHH

Row | Compound | IC50 (MIA PaCa-2 [1]) [nM] | IC50 (MIA PaCa-2 [2]) [nM] | other results
1 | N#C/N=C(\NCCCCCCC(=O)N(Cc1ccco1)C1CCCC1)N1Cc2ccccc2C1 | > 1000 |  | 
2 | O=C(CCCCCCCNC(=S)Nc1cccnc1)n1cccc1 | 854 |  | 
3 | COc1ccc2[nH]c(C(=O)N3CCC(CCCCn4cc(-c5cccnc5)nn4)CC3)cc2c1 | 860 |  | 
4 | N#C/N=C(\NCCCCCCC(=O)N(Cc1ccc(Cl)cc1)Cc1ccco1)N1Cc2ccccc2C1 | > 1000 |  | 
5 | N#C/N=C(\NCCCCCCC(=O)N(CCCN1CCOCC1)Cc1ccco1)N1Cc2ccccc2C1 | > 1000 |  | 
6 | O=C(NCCCCCCCCn1cc(-c2cccnc2)nn1)c1cc2ccccc2[nH]1 | 549 |  | 
7 | O=C(CCCCCCCNC(=S)Nc1cccnc1)NCc1ccco1 | > 1000 |  | 
8 | N#C/N=C(\NCCCCCCS(=O)(=O)N(Cc1ccco1)C1CCCC1)Nc1ccc(N=[N+]=[N-])cc1 | 1000 |  | 
9 | N#C/N=C(\NCCCCCCCC(=O)NCc1ccco1)Nc1ccncc1 | > 1000 |  | 
10 | N#C/N=C(\NCCCCCCS(=O)(=O)N(Cc1ccco1)C1CCCC1)Nc1ccccc1 | 176 | 4.7 | 
11 | CCOC(=O)c1ccc(N/C(=N/C#N)NCCCCCCS(=O)(=O)N(Cc2ccco2)C2CCCC2)cc1 | 738 |  | 
12 | O=C(CCCCCCNC(=S)Nc1cccnc1)N(Cc1ccco1)C1CCCC1 | 153 |  | 
13 | O=C(CCCCCCCn1cc(-c2cccnc2)nn1)n1cccc1 | 494 |  | 
14 | O=C(Nc1ccc(C(=O)N(Cc2ccco2)C2CCCC2)cc1)N1Cc2ccccc2C1 | > 1000 |  | 
15 | O=C(NCCCCCCCCNC(=S)Nc1cccnc1)c1cc2ccccc2[nH]1 | 605 |  | 
16 | O=C(CCCCCCCn1cc(-c2cccnc2)nn1)NCc1ccco1 | > 1000 |  | 
17 | O=C(NCc1ccco1)c1ccc(NC(=O)N2Cc3ccccc3C2)cc1 | > 1000 |  | 
18 | O=C(c1cc2ccccc2[nH]1)N1CCC(CCCCn2cc(-c3cccnc3)nn2)CC1 | 727 |  | 
19 | N#C/N=C(\NCCCCCCC(=O)N(Cc1ccco1)C1CCCC1)Nc1ccccc1 | > 1000 |  | 
20 | O=C(c1cc2ccccc2[nH]1)N1CCC(CCCCNC(=S)Nc2cccnc2)CC1 | > 1000 |  | 

The next compounds have a lower IC50 (MIA PaCa-2 [1]) than those just listed; values first:

Row | IC50 (MIA PaCa-2 [1]) [nM] | IC50 (MIA PaCa-2 [2]) [nM] | Compound | other results
21 | 81 |  | N#C/N=C(\NCCCCCCCCNC(=O)c1cc2ccccc2[nH]1)Nc1cccnc1 | 
22 | 3 | 1.43 | N#C/N=C(\NCCCCCCC(=O)N(CCCN1CCOCC1)Cc1ccco1)Nc1ccncc1 | 
23 | 16.3 | 11.2 | N#C/N=C(\NCCCCCC(=O)N(CCCN1CCOCC1)Cc1ccco1)Nc1ccncc1 | 
24 | 113 |  | N#C/N=C(\NCCCCC1CCN(C(=O)c2cc3ccccc3[nH]2)CC1)Nc1cccnc1 | 
25 | 6.3 | 0.5 | N#C/N=C(\NCCCCCC(=O)N(Cc1ccco1)c1ccc(Cl)cc1)Nc1ccncc1 | 
26 | 2.1 | 0.14 | N#C/N=C(\NCCCCCCC(=O)N(Cc1ccco1)c1ccc([N+](=O)[O-])cc1)Nc1ccncc1 | IC50 (RPMI-8226): 2.13 nM; IC50 (NAMALVA): 1.39 nM; IC50 (ML-2): 0.32 nM
27 | 25.8 | 2.36 | N#C/N=C(\NCCCCCCn1cc(CN(CCCN2CCOCC2)Cc2ccco2)nn1)Nc1ccncc1 | 
28 | 4.5 | 2 | N#C/N=C(\NCCCCCCC(=O)N(CCCN1CCCC1)Cc1ccco1)Nc1ccncc1 | 
29 | 2.4 | 0.34 | O=C(/C=C/c1cccnc1)NCCCCC1CCN(C(=O)c2ccccc2)CC1 [DAPORINAD] | IC50 (NB-4): 2 nM; IC50 (RPMI-8226): 0.76 nM; IC50 (NAMALVA): 0.37 nM; IC50 (Jurkat): 0.73 nM; IC50 (ML-2): 0.24 nM
30 | 1.7 | 0.17 | N#C/N=C(\NCCCCCCC(=O)N(Cc1ccco1)c1ccc(Cl)cc1)Nc1ccncc1 | 
31 | 2.26 | 1.5 | N#C/N=C(\NCCCCCCS(=O)(=O)N(CCCN1CCOCC1)Cc1ccco1)Nc1ccncc1 | 
32 | 16.4 | 0.43 | O=S(=O)(CCCCCCNC(=S)Nc1cccnc1)N(Cc1ccco1)C1CCCC1 | IC50 (RPMI-8226): 20.1 nM; IC50 (NAMALVA): 4.23 nM; IC50 [3]: 69.1 nM; IC50 (ML-2): 3.1 nM
33 | 3 | 0.2 | N#C/N=C(\NCCCCCC(=O)N(Cc1ccco1)C1CCCC1)Nc1ccncc1 | IC50 (RPMI-8226): 1.9 nM; IC50 (NAMALVA): 1.77 nM; IC50 (ML-2): 0.36 nM
